In one test the target is T1, ALK (Homo sapiens, UniProt Q9UM73).
T1 construct: host or cells: baculovirus expression system
Put plainly: ALK Kinase Assay (ELISA/TRF, PLC-γ substrate). It is filed as biochemical. The conditions noted are these: ALK Kinase Inhibition; read-out: ALK Potency. A digest of the protocol:
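PLC-γ coat 10 μg/mL in TBS; ALK 30 ng/ml added to start; 37° C, 15 min; Eu-N1 PT66 antibody detection (TRF). IC50: % inhibition vs log10 [cpd], variable-slope sigmoidal fit.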

The target in the next test is T2, JAK2 (Homo sapiens, UniProt O60674).
T2 construct: host or cells: baculovirus expression system
Put plainly: Recombinant Human JAK2 Kinase Assay (TRF). It is filed as biochemical. To be noted: JAK2 Kinase Inhibition; read-out: JAK2 Potency. The essentials: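 TRF read-out: Eu-N1 PY100 anti-phosphotyrosine antibody detects product. Enzyme is baculovirus-expressed JAK2 at 15 ng/ml; substrate is a biotinyl 15-mer peptide bound to Neutravidin-coated wells. Buffer 20 mM HEPES pH 7.2, 0.2 μM ATP, 1 mM MnCl2, 0.1% BSA, 2.5% DMSO final; 20 min, RT.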

SMILES strings stand for the structures. A value given as a limit tells only on which side of the number the result lay.

T2 sequence (O60674 whole entry): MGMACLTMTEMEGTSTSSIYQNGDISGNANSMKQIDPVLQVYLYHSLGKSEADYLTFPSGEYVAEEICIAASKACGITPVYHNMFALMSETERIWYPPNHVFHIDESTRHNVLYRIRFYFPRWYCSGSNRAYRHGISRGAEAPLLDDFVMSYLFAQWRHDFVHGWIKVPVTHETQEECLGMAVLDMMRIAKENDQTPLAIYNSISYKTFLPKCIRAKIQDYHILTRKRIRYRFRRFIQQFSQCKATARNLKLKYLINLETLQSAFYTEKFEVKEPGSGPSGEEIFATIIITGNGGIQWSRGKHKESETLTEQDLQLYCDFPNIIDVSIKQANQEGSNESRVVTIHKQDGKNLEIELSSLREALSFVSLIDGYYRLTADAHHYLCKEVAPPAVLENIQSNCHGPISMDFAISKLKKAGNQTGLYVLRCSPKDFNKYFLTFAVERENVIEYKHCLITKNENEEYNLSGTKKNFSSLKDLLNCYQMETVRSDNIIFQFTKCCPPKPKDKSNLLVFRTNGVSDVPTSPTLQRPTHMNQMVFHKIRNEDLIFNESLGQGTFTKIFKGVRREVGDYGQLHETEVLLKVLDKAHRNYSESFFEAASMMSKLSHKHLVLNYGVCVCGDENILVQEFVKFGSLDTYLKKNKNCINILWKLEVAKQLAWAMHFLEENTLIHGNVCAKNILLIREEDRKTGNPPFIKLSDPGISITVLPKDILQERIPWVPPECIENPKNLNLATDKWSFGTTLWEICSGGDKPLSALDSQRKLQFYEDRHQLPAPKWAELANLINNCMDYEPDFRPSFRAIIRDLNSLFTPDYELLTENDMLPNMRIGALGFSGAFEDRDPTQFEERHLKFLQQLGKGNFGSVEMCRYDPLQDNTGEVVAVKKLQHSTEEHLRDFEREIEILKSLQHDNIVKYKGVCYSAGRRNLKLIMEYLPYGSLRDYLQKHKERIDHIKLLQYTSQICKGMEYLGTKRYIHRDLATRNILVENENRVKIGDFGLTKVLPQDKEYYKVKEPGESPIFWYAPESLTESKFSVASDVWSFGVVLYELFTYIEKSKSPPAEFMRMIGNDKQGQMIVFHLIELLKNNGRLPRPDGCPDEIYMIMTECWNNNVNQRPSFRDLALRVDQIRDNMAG
T1 sequence (Q9UM73 19-1620): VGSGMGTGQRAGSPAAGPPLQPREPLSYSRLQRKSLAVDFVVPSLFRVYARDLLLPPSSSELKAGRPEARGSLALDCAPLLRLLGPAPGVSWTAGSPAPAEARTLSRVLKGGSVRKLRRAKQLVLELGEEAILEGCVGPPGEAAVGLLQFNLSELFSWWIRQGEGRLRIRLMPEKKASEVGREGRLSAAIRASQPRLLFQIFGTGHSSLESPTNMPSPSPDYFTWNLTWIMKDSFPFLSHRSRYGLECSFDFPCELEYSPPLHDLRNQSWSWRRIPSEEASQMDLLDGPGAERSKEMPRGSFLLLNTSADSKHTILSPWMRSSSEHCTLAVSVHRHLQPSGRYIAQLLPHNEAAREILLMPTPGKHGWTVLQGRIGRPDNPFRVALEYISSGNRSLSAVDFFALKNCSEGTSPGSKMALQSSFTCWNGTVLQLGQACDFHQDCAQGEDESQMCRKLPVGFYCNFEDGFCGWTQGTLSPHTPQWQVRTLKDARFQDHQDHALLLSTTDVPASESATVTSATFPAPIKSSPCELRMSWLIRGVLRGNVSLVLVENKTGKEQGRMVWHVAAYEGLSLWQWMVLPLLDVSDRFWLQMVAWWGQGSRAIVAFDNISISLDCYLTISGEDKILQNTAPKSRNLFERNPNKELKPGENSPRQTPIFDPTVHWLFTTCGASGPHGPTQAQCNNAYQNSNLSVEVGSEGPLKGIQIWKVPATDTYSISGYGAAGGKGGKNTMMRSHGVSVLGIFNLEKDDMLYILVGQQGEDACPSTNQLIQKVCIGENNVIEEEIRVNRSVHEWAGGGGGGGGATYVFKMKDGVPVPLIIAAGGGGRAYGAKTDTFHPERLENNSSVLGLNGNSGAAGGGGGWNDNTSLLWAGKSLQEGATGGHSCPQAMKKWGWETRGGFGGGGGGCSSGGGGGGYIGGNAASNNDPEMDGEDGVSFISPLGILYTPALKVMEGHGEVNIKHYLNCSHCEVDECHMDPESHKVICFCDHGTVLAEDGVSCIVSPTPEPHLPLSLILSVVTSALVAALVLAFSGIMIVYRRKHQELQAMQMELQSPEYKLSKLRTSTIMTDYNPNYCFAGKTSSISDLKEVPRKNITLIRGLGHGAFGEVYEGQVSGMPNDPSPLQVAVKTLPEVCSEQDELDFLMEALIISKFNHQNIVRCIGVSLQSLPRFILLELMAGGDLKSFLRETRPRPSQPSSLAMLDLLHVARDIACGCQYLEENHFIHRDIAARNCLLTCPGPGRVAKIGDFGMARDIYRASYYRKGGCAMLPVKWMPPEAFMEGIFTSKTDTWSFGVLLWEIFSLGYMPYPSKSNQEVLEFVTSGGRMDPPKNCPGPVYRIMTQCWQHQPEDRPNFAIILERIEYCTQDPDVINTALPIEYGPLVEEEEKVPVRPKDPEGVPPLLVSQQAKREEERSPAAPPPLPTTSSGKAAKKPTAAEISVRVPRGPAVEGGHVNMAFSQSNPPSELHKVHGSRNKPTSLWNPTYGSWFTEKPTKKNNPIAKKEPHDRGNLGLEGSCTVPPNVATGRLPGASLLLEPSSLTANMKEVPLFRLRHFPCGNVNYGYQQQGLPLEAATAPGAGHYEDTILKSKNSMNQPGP

For the compound `CN1CCN(c2ccc(Nc3ncc4ccc(-c5ccccc5C(N)=O)n4n3)cc2)CC1` [Example 409, 2-{2-[4-(4-Methyl-piperazin-1-yl)-phenylamino]-pyrrolo[2,1-f][1,2,4]triazin-7-yl}-benzamide], the IC50 on ALK is 100 to 1000 nM; on JAK2, less than 100 nM.

`CN(c1ccccc1-c1ccc2cnc(Nc3cccc(N4CCOCC4)c3)nn12)S(C)(=O)=O` [Example 410, N-Methyl-N-{2-[2-(3-morpholin-4-yl-phenylamino)-pyrrolo[2,1-f][1,2,4]triazin-7-yl]-phenyl}-methanesulfonamide]: the IC50 at ALK is 100 to 1000 nM; on JAK2 it was less than 100 nM.

As to `CN1CCN(c2ccc(Nc3ncc4ccc(-c5ccccc5S(=O)(=O)NC(C)(C)C)n4n3)cc2)CC1` [Example 411], the IC50 at ALK and at JAK2 was less than 100 nM each time.

For the compound `CC(C)(C)NS(=O)(=O)c1ccccc1-c1ccc2cnc(Nc3ccc(N4CCOCC4)cc3)nn12` [Example 412], the IC50 on ALK and on JAK2 was 100 to 1000 nM in each case.

For the compound `CN1CCN(c2ccc(Nc3ncc4ccc(-c5cccc(NS(=O)(=O)C6CC6)c5)n4n3)cc2)CC1` [Example 413, Cyclopropanesulfonic acid (3-{2-[4-(4-methyl-piperazin-1-yl)-phenylamino]-pyrrolo[2,1-f][1,2,4]triazin-7-yl}-phenyl)-amide], the IC50 was 100 to 1000 nM at ALK and less than 100 nM on JAK2.

For the compound `O=S(=O)(Nc1cccc(-c2ccc3cnc(Nc4ccc(N5CCOCC5)cc4)nn23)c1)C1CC1` [Example 414, Cyclopropanesulfonic acid {3-[2-(4-morpholin-4-yl-phenylamino)-pyrrolo[2,1-f][1,2,4]triazin-7-yl]-phenyl}-amide], the results for the IC50 at ALK and on JAK2 were 100 to 1000 nM and less than 100 nM, respectively.

As to `CCS(=O)(=O)Nc1cccc(-c2ccc3cnc(Nc4ccc(N5CCN(C)CC5)cc4)nn23)c1` [Example 415, Ethanesulfonic acid (3-{2-[4-(4-methyl-piperazin-1-yl)-phenylamino]-pyrrolo[2,1-f][1,2,4]triazin-7-yl}-phenyl)-amide], the IC50 on ALK is 100 to 1000 nM; on JAK2, less than 100 nM.

With `CCS(=O)(=O)Nc1cccc(-c2ccc3cnc(Nc4ccc(N5CCOCC5)cc4)nn23)c1` [Example 416, Ethanesulfonic acid {3-[2-(4-morpholin-4-yl-phenylamino)-pyrrolo[2,1-f][1,2,4]triazin-7-yl]-phenyl}-amide], the IC50 at ALK is 100 to 1000 nM; on JAK2, less than 100 nM.

`CCCS(=O)(=O)Nc1cccc(-c2ccc3cnc(Nc4ccc(N5CCN(C)CC5)cc4)nn23)c1` [Example 417, Propane-1-sulfonic acid (3-{2-[4-(4-methyl-piperazin-1-yl)-phenylamino]-pyrrolo[2,1-f][1,2,4]triazin-7-yl}-phenyl)-amide]: the IC50 at ALK and at JAK2 was less than 100 nM in each case.

Regarding `CCCS(=O)(=O)Nc1cccc(-c2ccc3cnc(Nc4ccc(N5CCOCC5)cc4)nn23)c1` [Example 418, Propane-1-sulfonic acid {3-[2-(4-morpholin-4-yl-phenylamino)-pyrrolo[2,1-f][1,2,4]triazin-7-yl]-phenyl}-amide], the IC50 on ALK is 100 to 1000 nM; at JAK2, less than 100 nM.

With `CN1CCN(c2ccc(Nc3ncc4ccc(-c5cccc(N(C)S(C)(=O)=O)c5)n4n3)cc2)CC1` [Example 419, N-Methyl-N-(3-{2-[4-(4-methyl-piperazin-1-yl)-phenylamino]-pyrrolo[2,1-f][1,2,4]triazin-7-yl}-phenyl)-methanesulfonamide], the IC50 at ALK is 100 to 1000 nM; at JAK2, less than 100 nM.

For the compound `CN(c1cccc(-c2ccc3cnc(Nc4ccc(N5CCOCC5)cc4)nn23)c1)S(C)(=O)=O` [Example 420, N-Methyl-N-{3-[2-(4-morpholin-4-yl-phenylamino)-pyrrolo[2,1-f][1,2,4]triazin-7-yl]-phenyl}-methanesulfonamide], the results for the IC50 at ALK and on JAK2 were 1000 to 10000 nM and less than 100 nM, respectively.

`COc1ccc(-c2ccc3cnc(Nc4ccc(N5CCN(C)CC5)cc4)nn23)cc1` [Example 421, [7-(4-Methoxy-phenyl)-pyrrolo[2,1-f][1,2,4]triazin-2-yl]-[4-(4-methyl-piperazin-1-yl)-phenyl]-amine]: the IC50 is 100 to 1000 nM at ALK and less than 100 nM at JAK2.

For `COc1cccc(-c2ccc3cnc(Nc4ccc(N5CCOCC5)cc4)nn23)c1` [Example 422, [7-(3-Methoxy-phenyl)-pyrrolo[2,1-f][1,2,4]triazin-2-yl]-(4-morpholin-4-yl-phenyl)-amine], the IC50 on ALK is greater than 10000 nM; on JAK2, less than 100 nM.

Turning to `COc1cccc(-c2ccc3cnc(Nc4ccc(N5CCN(C)CC5)cc4)nn23)c1` [Example 423, [7-(3-Methoxy-phenyl)-pyrrolo[2,1-f][1,2,4]triazin-2-yl]-[4-(4-methyl-piperazin-1-yl)-phenyl]-amine], the IC50 at ALK is 100 to 1000 nM; at JAK2, less than 100 nM.

On to `COc1ccc(OC)c(-c2ccc3cnc(Nc4ccc(N5CCOCC5)cc4)nn23)c1` [Example 424, [7-(2,5-Dimethoxy-phenyl)-pyrrolo[2,1-f][1,2,4]triazin-2-yl]-(4-morpholin-4-yl-phenyl)-amine], for which the IC50 on ALK was 100 to 1000 nM; on JAK2, less than 100 nM.

In the case of `COc1ccc(OC)c(-c2ccc3cnc(Nc4ccc(N5CCN(C)CC5)cc4)nn23)c1` [Example 425, [7-(2,5-Dimethoxy-phenyl)-pyrrolo[2,1-f][1,2,4]triazin-2-yl]-[4-(4-methyl-piperazin-1-yl)-phenyl]-amine], the IC50 was 100 to 1000 nM on ALK and less than 100 nM at JAK2.

`C[C@@H](O)CN1CCN(c2ccc(Nc3ncc4ccc(-c5cccc(S(=O)(=O)NC(C)(C)C)c5)n4n3)cc2)CC1` [Example 426, N-tert-Butyl-3-(2-{4-[4-((R)-2-hydroxy-propyl)-piperazin-1-yl]-phenylamino}-pyrrolo[2,1-f][1,2,4]triazin-7-yl)-benzenesulfonamide]: the IC50 is 100 to 1000 nM at ALK and less than 100 nM on JAK2.

For `C[C@H](O)CN1CCN(c2ccc(Nc3ncc4ccc(-c5cccc(S(=O)(=O)NC(C)(C)C)c5)n4n3)cc2)CC1` [Example 427, N-tert-Butyl-3-(2-{4-[4-((S)-2-hydroxy-propyl)-piperazin-1-yl]-phenylamino}-pyrrolo[2,1-f][1,2,4]triazin-7-yl)-benzenesulfonamide], the IC50 at ALK and at JAK2 was less than 100 nM each time.

As to `CS(=O)(=O)Nc1ccccc1-c1ccc2cnc(Nc3ccc(N4CCOCC4)cc3)nn12` [Example 428, N-{2-[2-(4-Morpholin-4-yl-phenylamino)-pyrrolo[2,1-f][1,2,4]triazin-7-yl]-phenyl}-methanesulfonamide], the values for the IC50 at ALK and on JAK2 were 1000 to 10000 nM and less than 100 nM, respectively.

Take `CN1CCN(c2ccc(Nc3ncc4ccc(-c5ccccc5NS(C)(=O)=O)n4n3)cc2)CC1` [Example 429, N-(2-{2-[4-(4-Methyl-piperazin-1-yl)-phenylamino]-pyrrolo[2,1-f][1,2,4]triazin-7-yl}-phenyl)-methanesulfonamide]: the IC50 at ALK was 100 to 1000 nM; at JAK2, less than 100 nM.

In the case of `C[C@H](O)CN1CCN(c2ccc(Nc3ncc4ccc(-c5ccccc5NS(C)(=O)=O)n4n3)cc2)CC1` [Example 430, N-[2-(2-{4-[4-((S)-2-Hydroxy-propyl)-piperazin-1-yl]-phenylamino}-pyrrolo[2,1-f][1,2,4]triazin-7-yl)-phenyl]-methanesulfonamide], the IC50 was 100 to 1000 nM at ALK and less than 100 nM on JAK2.

Turning to `CS(=O)(=O)Nc1ccccc1-c1ccc2cnc(Nc3cccc(N4CCOCC4)c3)nn12` [Example 431, N-{2-[2-(3-Morpholin-4-yl-phenylamino)-pyrrolo[2,1-f][1,2,4]triazin-7-yl]-phenyl}-methanesulfonamide], the IC50 at ALK is 1000 to 10000 nM; at JAK2, less than 100 nM.

Turning to `COc1ccccc1-c1ccc2cnc(Nc3ccc4c(c3)CC(=O)N4)nn12` [Example 432, 5-[7-(2-Methoxy-phenyl)-pyrrolo[2,1-f][1,2,4]triazin-2-ylamino]-1,3-dihydro-indol-2-one], the IC50 was 100 to 1000 nM on ALK and less than 100 nM on JAK2.

Regarding `COc1ccc(CNc2ncc3ccc(-c4ccccc4OC)n3n2)cc1OC` [Example 442, (3,4-Dimethoxy-benzyl)-[7-(2-methoxy-phenyl)-pyrrolo[2,1-f][1,2,4]triazin-2-yl]-amine], the results for the IC50 on ALK and at JAK2 were greater than 10000 nM and 1000 to 10000 nM, respectively.

As for `COc1ccccc1-c1ccc2cnc(Nc3ccc(N4CCCC(C(=O)N5CCN(C)CC5)C4)cc3)nn12` (centres unmarked) [Example 443, (1-{4-[7-(2-Methoxy-phenyl)-pyrrolo[2,1-f][1,2,4]triazin-2-ylamino]-phenyl}-piperidin-3-yl)-(4-methyl-piperazin-1-yl)-methanone], the IC50 at ALK and at JAK2 was less than 100 nM each time.

In the case of `COc1ccccc1-c1ccc2cnc(Nc3ccc(N4CCC(C(=O)N5CCN(C)CC5)CC4)cc3)nn12` [Example 444, (1-{4-[7-(2-Methoxy-phenyl)-pyrrolo[2,1-f][1,2,4]triazin-2-ylamino]-phenyl}-piperidin-4-yl)-(4-methyl-piperazin-1-yl)-methanone], the IC50 at ALK and on JAK2 was less than 100 nM each time.

With `CN1CCN(C(=O)C2CCN(c3ccc(Nc4ncc5ccc(-c6ccc(S(C)(=O)=O)cc6)n5n4)cc3)CC2)CC1` [Example 445, (1-{4-[7-(4-Methanesulfonyl-phenyl)-pyrrolo[2,1-f][1,2,4]triazin-2-ylamino]-phenyl}-piperidin-4-yl)-(4-methyl-piperazin-1-yl)-methanone], the IC50 at ALK was 100 to 1000 nM; at JAK2, less than 100 nM.

These data come from patent US8471005B2 (Cephalon, Inc., priority 2008, dated 2013).
